# System: MV-4-11 cells
# Assay: Gene expression microarray analysis (Affymetrix PrimeView) and GSEA
# Format: cell-based, human
# Design: RFU PODN (11730768_x_at) / Fold change /veh PODN (11730768_x_at) / RFU LINC00158 (11744669_a_at) / Fold change /veh LINC00158 (11744669_a_at) / RFU DUSP10 (11751237_a_at) / Fold change /veh DUSP10 (11751237_a_at) / RFU ID3 (11757404_x_at) / Fold change /veh ID3 (11757404_x_at) / RFU PLEKHG5 (11737974_s_at) / Fold change /veh PLEKHG5 (11737974_s_at) / RFU LRRC4B (11730491_at) / Fold change /veh LRRC4B (11730491_at) / RFU GIMAP4 (11747438_a_at) / Fold change /veh GIMAP4 (11747438_a_at) / RFU KRT8 (11758183_x_at) / Fold change /veh KRT8 (11758183_x_at) / RFU CNN1 (11734310_a_at) / Fold change /veh CNN1 (11734310_a_at) / RFU VPS37D (11726825_at) / Fold change /veh VPS37D (11726825_at) / RFU C10orf10 (11716522_x_at) / Fold change /veh C10orf10 (11716522_x_at) / RFU KIR2DL2 /// KIR2DL4 /// KIR2DL5A /// KIR2DL5B /// KIR2DS1 /// KIR2DS2 /// KIR2DS3 /// KIR2DS4 /// KIR3DL3 /// KIR3DL3 /// KIR3DS1 (11738374_at) / Fold change /veh KIR2DL2 /// KIR2DL4 /// KIR2DL5A /// KIR2DL5B /// KIR2DS1 /// KIR2DS2 /// KIR2DS3 /// KIR2DS4 /// KIR3DL3 /// KIR3DL3 /// KIR3DS1 (11738374_at) / RFU C1QL1 (11718748_at) / Fold change /veh C1QL1 (11718748_at) / RFU TMPRSS4 (11747572_a_at) / Fold change /veh TMPRSS4 (11747572_a_at) / RFU HAMP (11756126_x_at) / Fold change /veh HAMP (11756126_x_at) / RFU RNFT2 (11725882_a_at) / Fold change /veh RNFT2 (11725882_a_at) / RFU NR4A2 (11747474_a_at) / Fold change /veh NR4A2 (11747474_a_at) / RFU ABCC12 (11746883_a_at) / Fold change /veh ABCC12 (11746883_a_at) / RFU TMEM136 (11760407_x_at) / Fold change /veh TMEM136 (11760407_x_at) / RFU CLDN22 /// WWC2 (11732394_at) / Fold change /veh CLDN22 /// WWC2 (11732394_at) / RFU HLA-DPB1 (11760878_x_at) / Fold change /veh HLA-DPB1 (11760878_x_at) / RFU SPINT1 (11716480_a_at) / Fold change /veh SPINT1 (11716480_a_at) / RFU GAP43 (11754022_s_at) / Fold change /veh GAP43 (11754022_s_at) / RFU A4GNT (11735810_at) / Fold change /veh A4GNT (11735810_at) / RFU PRB3 (11715151_x_at) / Fold change /veh PRB3 (11715151_x_at) / RFU TUBB4B (11761932_at) / Fold change /veh TUBB4B (11761932_at) / RFU CAPN14 (11732068_a_at) / Fold change /veh CAPN14 (11732068_a_at) / RFU TMCC2 (11721928_a_at) / Fold change /veh TMCC2 (11721928_a_at) / RFU IRGQ (11745062_a_at) / Fold change /veh IRGQ (11745062_a_at) / RFU FAM174B (11720279_a_at) / Fold change /veh FAM174B (11720279_a_at) / RFU TMPRSS4 (11748680_a_at) / Fold change /veh TMPRSS4 (11748680_a_at) / RFU FAM212B (11763350_a_at) / Fold change /veh FAM212B (11763350_a_at) / RFU PLEKHG5 (11743358_a_at) / Fold change /veh PLEKHG5 (11743358_a_at) / RFU ZSCAN30 (11745921_a_at) / Fold change /veh ZSCAN30 (11745921_a_at) / RFU CMKLR1 (11741424_a_at) / Fold change /veh CMKLR1 (11741424_a_at) / RFU LOC101060620 /// MAPK8IP1 (11723275_at) / Fold change /veh LOC101060620 /// MAPK8IP1 (11723275_at) / RFU SPTSSB (11747773_x_at) / Fold change /veh SPTSSB (11747773_x_at) / RFU PRSS12 (11739890_at) / Fold change /veh PRSS12 (11739890_at) / RFU BIN1 (11741810_x_at) / Fold change /veh BIN1 (11741810_x_at) / RFU WNT11 (11732464_a_at) / Fold change /veh WNT11 (11732464_a_at) / RFU C10orf10 (11716521_a_at) / Fold change /veh C10orf10 (11716521_a_at) / RFU C5orf56 (11738089_at) / Fold change /veh C5orf56 (11738089_at) / RFU CYB561 (11721691_x_at) / Fold change /veh CYB561 (11721691_x_at) / RFU ANKRD19P (11752326_a_at) / Fold change /veh ANKRD19P (11752326_a_at) / RFU OR2T12 /// OR2T33 /// OR2T8 (11738714_s_at) / Fold change /veh OR2T12 /// OR2T33 /// OR2T8 (11738714_s_at) / RFU VCAN (11748164_a_at) / Fold change /veh VCAN (11748164_a_at) / RFU JSRP1 (11732532_at) / Fold change /veh JSRP1 (11732532_at) / RFU KRTAP10-11 (11738290_x_at) / Fold change /veh KRTAP10-11 (11738290_x_at) / RFU MYO3A (11730013_a_at) / Fold change /veh MYO3A (11730013_a_at) / RFU EBF3 (11725865_a_at) / Fold change /veh EBF3 (11725865_a_at) / RFU CAMK2N1 (11719241_x_at) / Fold change /veh CAMK2N1 (11719241_x_at) / RFU C5orf56 (11738088_a_at) / Fold change /veh C5orf56 (11738088_a_at) / RFU OLFML3 (11715873_a_at) / Fold change /veh OLFML3 (11715873_a_at) / RFU LOC100653217 /// NTM (11731650_a_at) / Fold change /veh LOC100653217 /// NTM (11731650_a_at) / RFU MAPK11 (11762145_a_at) / Fold change /veh MAPK11 (11762145_a_at) / RFU FIZ1 (11724087_x_at) / Fold change /veh FIZ1 (11724087_x_at) / RFU OASL (11726364_x_at) / Fold change /veh OASL (11726364_x_at) / RFU SOX15 (11748057_x_at) / Fold change /veh SOX15 (11748057_x_at) / RFU CD79A (11719716_a_at) / Fold change /veh CD79A (11719716_a_at) / RFU HIST1H1D (11736915_at) / Fold change /veh HIST1H1D (11736915_at) / RFU CASKIN2 (11723855_a_at) / Fold change /veh CASKIN2 (11723855_a_at) / RFU LOC730098 (11760151_x_at) / Fold change /veh LOC730098 (11760151_x_at) / RFU OR4N2 (11742367_at) / Fold change /veh OR4N2 (11742367_at) / RFU PRRT2 (11749266_a_at) / Fold change /veh PRRT2 (11749266_a_at) / RFU SNX32 (11753110_a_at) / Fold change /veh SNX32 (11753110_a_at) / RFU CDHR5 (11726645_a_at) / Fold change /veh CDHR5 (11726645_a_at) / RFU RCAN1 (11760418_a_at) / Fold change /veh RCAN1 (11760418_a_at) / RFU FAM167A (11723789_a_at) / Fold change /veh FAM167A (11723789_a_at) / RFU FAM26E (11764081_at) / Fold change /veh FAM26E (11764081_at) / RFU ISYNA1 (11749810_s_at) / Fold change /veh ISYNA1 (11749810_s_at) / RFU ACY1 (11761880_at) / Fold change /veh ACY1 (11761880_at) / RFU 11764098_at / Fold change /veh 11764098_at / RFU SAMD14 (11745864_x_at) / Fold change /veh SAMD14 (11745864_x_at) / RFU NPB (11741838_a_at) / Fold change /veh NPB (11741838_a_at) / RFU TMPRSS6 (11731388_a_at) / Fold change /veh TMPRSS6 (11731388_a_at) / RFU KRTAP10-2 (11738614_at) / Fold change /veh KRTAP10-2 (11738614_at) / RFU ARHGAP8 /// PRR5-ARHGAP8 (11727945_x_at) / Fold change /veh ARHGAP8 /// PRR5-ARHGAP8 (11727945_x_at) / RFU KRTAP5-7 /// NADSYN1 (11734609_at) / Fold change /veh KRTAP5-7 /// NADSYN1 (11734609_at) / RFU RASL12 (11751679_a_at) / Fold change /veh RASL12 (11751679_a_at) / RFU CDKN2B (11736163_a_at) / Fold change /veh CDKN2B (11736163_a_at) / RFU PRF1 (11729649_at) / Fold change /veh PRF1 (11729649_at) / RFU, ZNF638 /// ZNF638-IT1 / Fold change vs veh, ZNF638 /// ZNF638-IT1 / RFU, PANK3 / Fold change vs veh, PANK3 / RFU, SH3YL1 / Fold change vs veh, SH3YL1 / RFU, ZEB2 / Fold change vs veh, ZEB2 / RFU, NRIP1 / Fold change vs veh, NRIP1 / RFU, PTTG1IP / Fold change vs veh, PTTG1IP / RFU, CAPN2 / Fold change vs veh, CAPN2 / RFU, MED14 / Fold change vs veh, MED14 / RFU, SNORA58 / Fold change vs veh, SNORA58 / RFU, C1orf63 / Fold change vs veh, C1orf63 / RFU, LRRFIP1 / Fold change vs veh, LRRFIP1 / RFU, NDUFAF7 / Fold change vs veh, NDUFAF7 / RFU, SLC12A2 / Fold change vs veh, SLC12A2 / RFU, IBTK / Fold change vs veh, IBTK / RFU, ESF1 / Fold change vs veh, ESF1 / Fold change vs veh, TMEM50B / RFU, TAOK1 / Fold change vs veh, TAOK1 / RFU, ACBD3 / Fold change vs veh, ACBD3 / RFU, TMA16 / Fold change vs veh, TMA16 / RFU, RWDD3 / Fold change vs veh, RWDD3 / RFU, BCAT1 / Fold change vs veh, BCAT1 / RFU, EDEM3 / Fold change vs veh, EDEM3 / RFU, TMEM33 / Fold change vs veh, TMEM33 / RFU, WDR75 / Fold change vs veh, WDR75 / RFU, AHCTF1 / Fold change vs veh, AHCTF1 / RFU, TFRC / Fold change vs veh, TFRC / RFU, ZDHHC17 / Fold change vs veh, ZDHHC17 / RFU, NOM1 / Fold change vs veh, NOM1 / RFU, ARL8B / Fold change vs veh, ARL8B / RFU, ZBTB11 / Fold change vs veh, ZBTB11 / RFU, TAMM41 / Fold change vs veh, TAMM41 / RFU, KIAA1704 /// LOC100996395 / Fold change vs veh, KIAA1704 /// LOC100996395 / RFU, ING1 / Fold change vs veh, ING1 / RFU, TRMT61B / Fold change vs veh, TRMT61B / RFU, FUBP3 / Fold change vs veh, FUBP3 / RFU, TP53 / Fold change vs veh, TP53 / RFU, TNKS2 / Fold change vs veh, TNKS2 / RFU, ZFP14 / Fold change vs veh, ZFP14 / RFU, ACTR2 / Fold change vs veh, ACTR2 / RFU, PPP3R1 / Fold change vs veh, PPP3R1 / RFU, PIK3R1 / Fold change vs veh, PIK3R1 / RFU, HNRNPA1 / Fold change vs veh, HNRNPA1 / RFU, RNF170 / Fold change vs veh, RNF170 / RFU, ZNF28 / Fold change vs veh, ZNF28 / RFU, RNGTT / Fold change vs veh, RNGTT / RFU, OGT / Fold change vs veh, OGT / RFU, BRD1 / Fold change vs veh, BRD1 / RFU, MARS / Fold change vs veh, MARS / RFU, ZNF655 / Fold change vs veh, ZNF655 / RFU, FAHD1 / Fold change vs veh, FAHD1 / RFU, BDP1 / Fold change vs veh, BDP1 / RFU, LRRCC1 / Fold change vs veh, LRRCC1 / RFU, ARID1A / Fold change vs veh, ARID1A / RFU, ZNF146 / Fold change vs veh, ZNF146 / RFU, ZNF330 / Fold change vs veh, ZNF330 / RFU, GPN3 / Fold change vs veh, GPN3 / RFU, C9orf123 / Fold change vs veh, C9orf123 / RFU, N4BP2L2 / Fold change vs veh, N4BP2L2 / RFU, ARFIP1 / Fold change vs veh, ARFIP1 / RFU, FAM179B / Fold change vs veh, FAM179B / RFU, BCL10 / Fold change vs veh, BCL10 / RFU, UHRF1BP1L / Fold change vs veh, UHRF1BP1L / RFU, BET1 / Fold change vs veh, BET1 / RFU, CNOT2 / Fold change vs veh, CNOT2 / RFU, ZNF268 / Fold change vs veh, ZNF268 / Fold change vs veh, ZNF507 / RFU, DGCR2 / Fold change vs veh, DGCR2 / RFU, WDSUB1 / Fold change vs veh, WDSUB1 / Fold change vs veh, HSP90B1 /// MIR3652 / RFU, ADSS / Fold change vs veh, ADSS / RFU, GK / Fold change vs veh, GK / RFU, ZNF148 / Fold change vs veh, ZNF148 / RFU, TAF9 / Fold change vs veh, TAF9 / RFU, SLC1A5 / Fold change vs veh, SLC1A5 / RFU, SLMO2 / Fold change vs veh, SLMO2 / RFU, ABCC4 / Fold change vs veh, ABCC4 / RFU, LOC101060439 /// RAP1B / Fold change vs veh, LOC101060439 /// RAP1B / RFU, RFX7 / Fold change vs veh, RFX7 / RFU, GTPBP10 / Fold change vs veh, GTPBP10 / RFU, CNEP1R1 / Fold change vs veh, CNEP1R1 / RFU, BIVM-ERCC5 /// ERCC5 / Fold change vs veh, BIVM-ERCC5 /// ERCC5 / RFU, ILF3 / Fold change vs veh, ILF3 / RFU 11762660_at / Fold change /veh 11762660_at / RFU VCAN (11757783_s_at) / Fold change /veh VCAN (11757783_s_at) / RFU DDX43 (11728927_at) / Fold change /veh DDX43 (11728927_at) / RFU KRT8 (11758188_x_at) / Fold change /veh KRT8 (11758188_x_at) / RFU NKD1 (11759106_at) / Fold change /veh NKD1 (11759106_at) / RFU SRD5A1 (11742802_a_at) / Fold change /veh SRD5A1 (11742802_a_at) / RFU TPSAB1 /// TPSB2 (11721975_s_at) / Fold change /veh TPSAB1 /// TPSB2 (11721975_s_at) / RFU GSTM3 (11746129_a_at) / Fold change /veh GSTM3 (11746129_a_at) / RFU IL23R (11737362_x_at) / Fold change /veh IL23R (11737362_x_at) / RFU TMEM51 (11727254_a_at) / Fold change /veh TMEM51 (11727254_a_at) / RFU PIWIL2 (11732686_x_at) / Fold change /veh PIWIL2 (11732686_x_at) / RFU ORM1 (11744905_x_at) / Fold change /veh ORM1 (11744905_x_at) / RFU CCDC152 (11743942_at) / Fold change /veh CCDC152 (11743942_at) / RFU ECM1 (11717891_a_at) / Fold change /veh ECM1 (11717891_a_at) / RFU IL23R (11748794_a_at) / Fold change /veh IL23R (11748794_a_at) / RFU TNFAIP8L3 (11732012_x_at) / Fold change /veh TNFAIP8L3 (11732012_x_at) / RFU MBOAT4 (11741988_at) / Fold change /veh MBOAT4 (11741988_at) / RFU 11764193_at / Fold change /veh 11764193_at / RFU TMEM53 (11763286_at) / Fold change /veh TMEM53 (11763286_at) / RFU MAGEB2 (11727129_at) / Fold change /veh MAGEB2 (11727129_at) / RFU TMEM200A (11744735_a_at) / Fold change /veh TMEM200A (11744735_a_at) / RFU CCDC152 (11751479_a_at) / Fold change /veh CCDC152 (11751479_a_at) / RFU FAM211A (11726209_a_at) / Fold change /veh FAM211A (11726209_a_at) / RFU RGS16 (11746705_a_at) / Fold change /veh RGS16 (11746705_a_at) / RFU VCAN (11755009_s_at) / Fold change /veh VCAN (11755009_s_at) / RFU RHOB (11743442_s_at) / Fold change /veh RHOB (11743442_s_at) / RFU RGS16 (11720943_a_at) / Fold change /veh RGS16 (11720943_a_at) / RFU RGS16 (11720944_at) / Fold change /veh RGS16 (11720944_at) / RFU, VPS4B / Fold change vs veh, VPS4B / RFU, CREB1 / Fold change vs veh, CREB1 / RFU, DNAJC13 / Fold change vs veh, DNAJC13 / RFU, GNAQ / Fold change vs veh, GNAQ / RFU, CDK5R1 / Fold change vs veh, CDK5R1 / RFU, ZRANB3 / Fold change vs veh, ZRANB3 / RFU, CUL4A / Fold change vs veh, CUL4A / RFU, CCNY / Fold change vs veh, CCNY / RFU, UFL1 / Fold change vs veh, UFL1 / RFU, COG3 / Fold change vs veh, COG3 / RFU, DIAPH2 / Fold change vs veh, DIAPH2 / RFU, SKA2 / Fold change vs veh, SKA2 / RFU, AFF3 / Fold change vs veh, AFF3 / RFU, LMF1 / Fold change vs veh, LMF1 / RFU, IPO11 / Fold change vs veh, IPO11 / RFU, DFFB / Fold change vs veh, DFFB / RFU, FOXP1 / Fold change vs veh, FOXP1 / RFU, CARD8 / Fold change vs veh, CARD8 / RFU, STRN3 / Fold change vs veh, STRN3 / RFU, ADK / Fold change vs veh, ADK / RFU, RASSF2 / Fold change vs veh, RASSF2 / RFU, WIPF1 / Fold change vs veh, WIPF1 / RFU, LARP1B / Fold change vs veh, LARP1B / RFU, RASA1 / Fold change vs veh, RASA1 / RFU, RB1 / Fold change vs veh, RB1 / RFU, PPFIA1 / Fold change vs veh, PPFIA1 / RFU, MAT2A / Fold change vs veh, MAT2A / RFU, CCT5 / Fold change vs veh, CCT5 / RFU, WDR92 / Fold change vs veh, WDR92 / RFU, CUX1 / Fold change vs veh, CUX1 / RFU, TTC7A / Fold change vs veh, TTC7A / RFU, TMEM135 / Fold change vs veh, TMEM135 / RFU, DEPTOR / Fold change vs veh, DEPTOR / RFU, CPM / Fold change vs veh, CPM / RFU, DNAJB6 / Fold change vs veh, DNAJB6 / RFU, CACNA2D3 / Fold change vs veh, CACNA2D3 / RFU, DTX4 / Fold change vs veh, DTX4 / RFU, TFCP2 / Fold change vs veh, TFCP2 / RFU, GMCL1 /// GMCL1P1 / Fold change vs veh, GMCL1 /// GMCL1P1 / RFU, AEBP2 / Fold change vs veh, AEBP2 / RFU, SNHG1 /// SNORD22 /// SNORD25 /// SNORD26 /// SNORD27 /// SNORD28 /// SNORD29 /// SNORD31 / Fold change vs veh, SNHG1 /// SNORD22 /// SNORD25 /// SNORD26 /// SNORD27 /// SNORD28 /// SNORD29 /// SNORD31 / Fold change (Aza/veh), C12orf56 (ProbeSet 11735607_a_at) / Fold change (ACY-1035/veh), C12orf56 (ProbeSet 11735607_a_at) / Fold change (Aza/veh), FGFR1OP (ProbeSet 11751329_s_at) / Fold change (ACY-1035/veh), FGFR1OP (ProbeSet 11751329_s_at) / Fold change (Aza/veh), VPS36 (ProbeSet 11739960_a_at) / Fold change (ACY-1035/veh), VPS36 (ProbeSet 11739960_a_at) / RFU SYPL1 (11715823_x_at) / Fold change /veh SYPL1 (11715823_x_at) / RFU IGFBP7 (11715501_s_at) / Fold change /veh IGFBP7 (11715501_s_at) / RFU REEP3 (11722064_at) / Fold change /veh REEP3 (11722064_at) / RFU IGLL1 (11728026_x_at) / Fold change /veh IGLL1 (11728026_x_at): dose or concentration left out as unconfirmed
# Conditions: MV-4-11 cells, 48 hours
compound,measurement,value
Nc1ncn([C@@H]2O[C@H](CO)[C@@H](O)[C@H]2O)c(=O)n1 [azacitidine],RFU NKD1 (11759106_at),23.64 RFU
